Measured values from the supplement of paper PMC10307832.

Key:
Test in all cases: relative viability (nuclei count vs DMSO), 5 days (fraction); higher = more cells survive
PAC-1 + Olaparib = compound: C=CCc1cccc(/C=N/NC(=O)CN2CCN(Cc3ccccc3)CC2)c1O [PAC-1] + O=C(c1cc(Cc2n[nH]c(=O)c3ccccc23)ccc1F)N1CCN(C(=O)C2CC2)CC1 [Olaparib] (partner 8 µM)
How it was run: (§1)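 Values are medians from duplicate plates. Each reflects relative viability, defined as the nuclei count of treated wells over that of vehicle wells. Lung cancer cell lines in 1536-well plates were pin-tool dosed one day after seeding with one drug alone or with a fixed anchor-drug dose plus five library-drug doses (not always all listed) in √10 steps, then fixed, stained and imaged at 4× after 5 days.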

BMX-IN-1 + Linsitinib = compound: C=CC(=O)Nc1cc(-n2c(=O)ccc3cnc4ccc(-c5ccc(NS(C)(=O)=O)cc5)cc4c32)ccc1C [BMX-IN-1] + C[C@]1(O)C[C@@H](c2nc(-c3ccc4ccc(-c5ccccc5)nc4c3)c3c(N)nccn32)C1 [Linsitinib] (partner 1 µM)
How it was run: as §1

Ibrutinib + Vorinostat = compound: C=CC(=O)N1CCC[C@@H](n2nc(-c3ccc(Oc4ccccc4)cc3)c3c(N)ncnc32)C1 [Ibrutinib] + O=C(CCCCCCC(=O)Nc1ccccc1)NO [Vorinostat] (partner 1 µM)
How it was run: as §1

Ibrutinib + Crizotinib = compound: C=CC(=O)N1CCC[C@@H](n2nc(-c3ccc(Oc4ccccc4)cc3)c3c(N)ncnc32)C1 [Ibrutinib] + C[C@@H](Oc1cc(-c2cnn(C3CCNCC3)c2)cnc1N)c1c(Cl)ccc(F)c1Cl [Crizotinib] (partner 1 µM)
How it was run: as §1

Cell Line | relative viability (PAC-1 + Olaparib; first compound 0.02 µM) | relative viability (PAC-1 + Olaparib; first compound 0.06325 µM) | relative viability (PAC-1 + Olaparib; first compound 0.2 µM) | relative viability (PAC-1 + Olaparib; first compound 2 µM) | relative viability (BMX-IN-1 + Linsitinib; first compound 0.02 µM) | relative viability (BMX-IN-1 + Linsitinib; first compound 0.2 µM) | relative viability (BMX-IN-1 + Linsitinib; first compound 0.6325 µM) | relative viability (BMX-IN-1 + Linsitinib; first compound 2 µM) | relative viability (Ibrutinib + Vorinostat; first compound 0.005 µM) | relative viability (Ibrutinib + Vorinostat; first compound 0.01581 µM) | relative viability (Ibrutinib + Vorinostat; first compound 0.05 µM) | relative viability (Ibrutinib + Vorinostat; first compound 0.1581 µM) | relative viability (Ibrutinib + Vorinostat; first compound 0.5 µM) | relative viability (Ibrutinib + Crizotinib; first compound 0.005 µM) | relative viability (Ibrutinib + Crizotinib; first compound 0.01581 µM) | relative viability (Ibrutinib + Crizotinib; first compound 0.05 µM) | relative viability (Ibrutinib + Crizotinib; first compound 0.1581 µM) | relative viability (Ibrutinib + Crizotinib; first compound 0.5 µM)
LU99A | 0.247 | 0.282 | 0.271 | 0.257 | 0.547 | 0.533 | 0.532 | 0.535 | 0.369 | 0.512 | 0.486 | 0.564 | 0.439 | 0.522 | 0.605 | 0.619 | 0.644 | 0.644
LXF-289 | 1.07 | 1.03 | 1.05 | 1.03 | 0.982 | 1.05 | 1.07 | 1.04 | 0.943 | 0.798 | 0.695 | 0.796 | 0.749 | 0.948 | 0.804 | 0.807 | 0.784 | 0.791
NCI-H522 | 0.591 | 0.643 | 0.619 | 0.626 | – | – | – | – | 0.848 | 0.764 | – | 0.808 | 0.815 | – | – | – | – | –
NCI-H1299 | 0.947 | 0.933 | 0.937 | 0.895 | 1.2 | 0.986 | 1.13 | 1.12 | – | – | – | – | – | 1 | 0.897 | 0.957 | 0.977 | 0.965
NCI-H1395 | 0.493 | 0.44 | 0.485 | 0.46 | 0.975 | 1 | 1.11 | 1.08 | 0.529 | 0.79 | 0.642 | 0.516 | 0.798 | – | – | – | – | –
NCI-H1563 | – | – | – | – | 1.16 | 1.33 | 1.16 | 1.18 | – | – | – | – | – | 0.815 | 0.874 | 0.803 | 0.875 | 0.8
NCI-H1648 | 0.573 | 0.646 | 0.889 | 0.832 | – | – | – | – | 0.423 | 0.441 | 0.402 | 0.31 | 0.343 | – | – | – | – | –
NCI-H1650 | 0.709 | 0.751 | 0.726 | 0.674 | – | – | – | – | 0.579 | 0.589 | 0.422 | 0.71 | 0.535 | 0.845 | 0.919 | 0.934 | 1.09 | 0.744
NCI-H1703 | 0.376 | 0.401 | 0.388 | 0.341 | 0.945 | 0.666 | 0.712 | 0.746 | – | – | – | – | – | – | – | 0.839 | 0.934 | 0.729
NCI-H1792 | 0.305 | 0.383 | 0.0039 | 0.454 | 0.431 | 0.795 | 0.449 | 0.51 | – | – | – | – | – | 0.979 | 0.989 | 1.13 | 0.654 | 0.961
NCI-H1793 | 0.682 | 0.855 | 0.7 | 0.628 | 1.33 | 0.987 | 1.24 | 0.844 | 0.405 | 0.643 | 0.47 | 0.518 | 0.367 | – | – | – | – | –
NCI-H2170 | 0.557 | 0.632 | 0.562 | 0.542 | – | – | – | – | 0.703 | 0.656 | 0.396 | 0.831 | 0.181 | 1.07 | 0.824 | 0.452 | 1.19 | 0.227
NCI-H2342 | 0.442 | 0.474 | 0.367 | 0.525 | – | – | – | – | 0.495 | 0.783 | 0.754 | 0.76 | 0.731 | – | – | – | – | –
SW 900 | – | 1.07 | 0.85 | 0.718 | – | – | – | – | 0.343 | 0.43 | 0.488 | 0.4 | 0.527 | – | – | – | – | –
